Earlier results on two compounds are cited in patent publication US20250228808A1, “COMPOSITIONS AND METHODS FOR THE TREATMENT OF CORONAVIRUS DISEASES” (priority 2022, published 2025).

Structures are written as SMILES.

The conditions of series [1]: Sansone 2011.
For series [2] the following is noted: entry into the cell.
The conditions of series [3]: Lu S C 2000.

As to `CC(=O)N[C@@H](CS)C(=O)O` [NAC, N-acetyl cysteine], the “fraction of dose excreted by the kidneys” value in series [1] is “one-third”. As to `N[C@@H](CCC(=O)N[C@@H](CS)C(=O)NCC(=O)O)C(=O)O` [GSH, glutathione], the membrane permeability result in series [2] was “membrane-impermeable”. The “half-life in the blood” value in series [3] is “seconds to minutes”.
